Test results as given in EP1192860B1, “UVA-tracer containing disinfectant and method of determining the degree of dilution of disinfectants using UVA-tracers” (Air Liquide Santé (International), priority 2000, dated 2002).
“Also recorded” adds a separate entry of the source.

Tests used:
Format in all cases: physicochemical
[1] = Solubility of selected UV-A-tracers in selected concentrates; conditions: for Solubilities of selected UV-A-tracers in concentrates and optically visible changes compared with the original concentrate: 0.2 g UV-A-tracer in 100 g concentrate, stirred 3 hours; for Solubility in the concentrates: all five concentrates (preparations 1 to 5)
Text: Solubilities of selected UV-A-tracers in concentrates containing various active ingredient combinations (preparations 1 to 5) and optically visible changes compared with the original concentrate, "+" UV-A-tracer soluble in 100 g of preparation to at least 0.2 g, "y" the originally colourless concentrate turns yellowish as a result of the incorporation of the UV-A-tracer.

[2] = Absorption spectrophotometric stability investigations of the incorporated UV-A-tracers
Description: The long-term stability of combinations of concentrate and UV-A-tracers in the dark and under the effect of light was investigated by reference to UV spectra. The combinations below were used (Table 7): Table 7
Following storage at room temperature for 4, 8 or 12 weeks in the dark or in daylight, 1% strength dilutions of each of the preparations in water were prepared.

[3] = Stability investigations of UV-A-tracer-containing concentrates (optically visible changes on storage); conditions: clear glass bottles, room temperature, window-sill vs dark, 3 months
Text: Since the UV-A-tracers are to be used for determining the active ingredient concentrations of disinfectant solutions, the UV-A-tracer-containing concentrates must be sufficiently stable throughout the entire storage life of the commercially available disinfectant concentrates (approximately 3 years). In order to investigate the stability of the UV-A-tracers, preparations 1 to 5 to which UV-A-tracers have been added were stored in clear glass bottles at room temperature firstly on a window-sill and secondly as a reference in the dark. Over a period of 3 months, the optically visible changes of the UV-A-tracer-containing preparations stored under varying conditions were observed and, at regular time intervals, 1% dilutions of these UV-A-tracer-containing preparations in water were investigated spectroscopically.

[4] = Prep.4 (Combinations of aldehydes)
[5] = Prep.5 (Quat + phenoxypropanols)
[6] = amine-containing preparations (1 and 2)

| SMILES | Solubilities of selected UV-A-tracers in concentrates and optically visible changes compared with the original concentrate ([1]; Prep.1 (Quat + alkylamine)) | Solubilities of selected UV-A-tracers in concentrates and optically visible changes compared with the original concentrate ([1]; Prep.2 (Quat + GuAc)) | Solubilities of selected UV-A-tracers in concentrates and optically visible changes compared with the original concentrate ([1]; Prep.3 (Quat + org. acid)) | Solubilities of selected UV-A-tracers in concentrates and optically visible changes compared with the original concentrate [1, 4] | Solubilities of selected UV-A-tracers in concentrates and optically visible changes compared with the original concentrate [1, 5] | Colour change on incorporation of the UV-A-tracer [1, 6] | Decomposition of the UV-A-tracer ([2]; preparations 3, 4 and 5, storage in the dark and in daylight) | Changes within the observation period ([3]; in Preparation 3) | Solubility in the concentrates [1] | Divergence of the absorptions between sample stored in the dark and sample exposed to daylight ([2]; in preparation 5, after 12 weeks, 1% strength dilutions in water) | Odour of the sample ([2]; in preparation 5, exposed to daylight, after 12 weeks) | Changes of the sample ([2]; in preparation 5, stored in the dark) | Changes within the observation period ([3]; in Preparation 1) | Changes within the observation period ([3]; in Preparation 2) | Changes within the observation period ([3]; in Preparation 4) | Changes within the observation period ([3]; in Preparation 5) | Colour change on incorporation of the UV-A-tracer ([1]; all preparations) |
| --- | --- | --- | --- | --- | --- | --- | --- | --- | --- | --- | --- | --- | --- | --- | --- | --- | --- |
| COc1cc(O)c(C(=O)c2ccccc2)cc1S(=O)(=O)O [Benzophenone-4, 2-Hydroxy-4-methoxybenzophenone-5-sulphonic acid] | +y | +y | + (UV-A-tracer soluble in 100 g of preparation to at least 0.2 g) | + (UV-A-tracer soluble in 100 g of preparation to at least 0.2 g) | + (UV-A-tracer soluble in 100 g of preparation to at least 0.2 g) | intensive yellow coloration |  |  |  |  |  |  |  |  |  |  |  |
| COc1ccc(C(=O)c2ccc(OC)cc2O)c(O)c1 [Benzophenone-6, 2,2'-Dihydroxy-4,4'-dimethoxybenzophenone] | +y | +y | +y | + (UV-A-tracer soluble in 100 g of preparation to at least 0.2 g) | + (UV-A-tracer soluble in 100 g of preparation to at least 0.2 g) | intensive yellow coloration |  |  |  |  |  |  |  |  |  |  |  |
| COc1cc(O)c(C(=O)c2cc(S(=O)(=O)[O-])c(OC)cc2O)cc1S(=O)(=O)[O-].[Na+].[Na+] [Benzophenone-9, 2,2'-dihydroxy-4,4'-dimethoxybenzophenone-5,5'-disodium sulphonate] | +y | +y | +y | + (UV-A-tracer soluble in 100 g of preparation to at least 0.2 g) | + (UV-A-tracer soluble in 100 g of preparation to at least 0.2 g) | intensive yellow coloration |  |  |  |  |  |  |  |  |  |  |  |
| COc1ccc(C(=O)c2ccccc2)c(O)c1 [Benzophenone-3, 2-Hydroxy-4-methoxybenzophenone] | +y | +y | + (UV-A-tracer soluble in 100 g of preparation to at least 0.2 g) | + (UV-A-tracer soluble in 100 g of preparation to at least 0.2 g) | + (UV-A-tracer soluble in 100 g of preparation to at least 0.2 g) | intensive yellow coloration | In none of the three disinfectants was decomposition of benzophenone-3 observed | does not display changes of any kind and none | dissolves without problems |  |  |  |  |  |  |  |  |
| CC1CCC(C(C)C)C(OC(=O)c2ccccc2N)C1 (stereo not drawn) [Menthyl anthranilate, Menthyl o-aminobenzoate] | + (UV-A-tracer soluble in 100 g of preparation to at least 0.2 g) | + (UV-A-tracer soluble in 100 g of preparation to at least 0.2 g) | + (UV-A-tracer soluble in 100 g of preparation to at least 0.2 g) | + (UV-A-tracer soluble in 100 g of preparation to at least 0.2 g) | + (UV-A-tracer soluble in 100 g of preparation to at least 0.2 g) |  |  | intensive yellow coloration | dissolves in all preparations | significant divergence | intensive unpleasant odour | does not display any perceptible changes | slight yellowish tinge; also recorded: slight yellow coloration | slight yellowish tinge; also recorded: slight yellow coloration | pale yellow-green colour | from green to yellow | without visible colour changes |
